From ChEMBL document CHEMBL1201862, “PubChem BioAssay data set” (2004)
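Interpolation was linear, between the two tested concentrations surrounding the appropriate level; five concentrations were tested over 48 hours in 96-well plates. GI50: concentration for 50% inhibition of growth.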 Activity calls are given as the source filed them. Cut-off read from the data, not from the text of the source: active = GI50 up to about 1.1 µM and inactive = higher.

Key:
Assay in all cases: inhibition of tumour cell growth, NCI panel, 48 h
786-0 = tested on: 786-0
A549 = tested on: A549
ACHN = tested on: ACHN
COLO 205 = tested on: COLO 205
EKVX = tested on: EKVX
HCC 2998 = tested on: HCC 2998
Hs-578T = tested on: Hs-578T
M14 = tested on: M14
MDA-MB-231 = tested on: MDA-MB-231
MDA-MB-435 = tested on: MDA-MB-435
MOLT-4 = tested on: MOLT-4
NCI-H460 = tested on: NCI-H460
OVCAR-4 = tested on: OVCAR-4
PC-3 = tested on: PC-3
RXF 393 = tested on: RXF 393
SF-539 = tested on: SF-539
SN12C = tested on: SN12C
TK-10 = tested on: TK-10
UACC-257 = tested on: UACC-257

## CC(C)C(C/C=C1/CC(CO)(COC(=O)C(C)(C)C)OC1=O)C(C)C (centres undefined)
786-0
  GI50: 3.23 µM (inactive)
A549
  GI50: 1.09 µM (active)
ACHN
  GI50: 5.9 µM (inactive)
COLO 205
  GI50: 0.0678 µM (active)
EKVX
  GI50: 8.17 µM (inactive)
HCC 2998
  GI50: 3.1 µM (inactive)
Hs-578T
  GI50: 0.735 µM (active)
M14
  GI50: 11.7 µM (inactive)
MDA-MB-231
  GI50: 3.25 µM (inactive)
MDA-MB-435
  GI50: 8.59 µM (inactive)
MOLT-4
  GI50: 0.514 µM (active)
NCI-H460
  GI50: 7.76 µM (inactive)
OVCAR-4
  GI50: 16.6 µM (inactive)
PC-3
  GI50: 6.24 µM (inactive)
RXF 393
  GI50: 15.6 µM (inactive)
SF-539
  GI50: 0.598 µM (active)
SN12C
  GI50: 11.1 µM (inactive)
TK-10
  GI50: 3.72 µM (inactive)
UACC-257
  GI50: 16.8 µM (inactive)

## CCN(CC)C1Oc2cc3c(cc2C(c2cc(OC)c(O)c(OC)c2)C1C)OCO3 (centres undefined)
786-0
  GI50: 10.4 µM (inactive)
A549
  GI50: 11.7 µM (inactive)
ACHN
  GI50: 18.3 µM (inactive)
COLO 205
  GI50: 15.5 µM (inactive)
EKVX
  GI50: 36.8 µM (inactive)
HCC 2998
  GI50: 7.01 µM (inactive)
Hs-578T
  GI50: 6.84 µM (inactive)
M14
  GI50: 4.69 µM (inactive)
MDA-MB-231
  GI50: 18.8 µM (inactive)
MDA-MB-435
  GI50: 2.14 µM (inactive)
MOLT-4
  GI50: 6.08 µM (inactive)
NCI-H460
  GI50: 6.18 µM (inactive)
OVCAR-4
  GI50: 22.3 µM (inactive)
PC-3
  GI50: 14.4 µM (inactive)
RXF 393
  GI50: 6.95 µM (inactive)
SF-539
  GI50: 11.3 µM (inactive)
SN12C
  GI50: 15.2 µM (inactive)
TK-10
  GI50: 24.9 µM (inactive)
UACC-257
  GI50: 25 µM (inactive)

## CCN(CC)C1Oc2cc3c(cc2C(c2cccc(OC)c2O)C1C)OCO3 (centres undefined)
786-0
  GI50: 9.79 µM (inactive)
A549
  GI50: 5.02 µM (inactive)
ACHN
  GI50: 6.25 µM (inactive)
COLO 205
  GI50: 3.03 µM (inactive)
EKVX
  GI50: 10.6 µM (inactive)
HCC 2998
  GI50: 12.4 µM (inactive)
Hs-578T
  GI50: 2.51 µM (inactive)
M14
  GI50: 2.98 µM (inactive)
MDA-MB-231
  GI50: 10.5 µM (inactive)
MDA-MB-435
  GI50: 1.74 µM (inactive)
MOLT-4
  GI50: 3.68 µM (inactive)
NCI-H460
  GI50: 4.24 µM (inactive)
OVCAR-4
  GI50: 7.14 µM (inactive)
PC-3
  GI50: 3.63 µM (inactive)
RXF 393
  GI50: 4.5 µM (inactive)
SF-539
  GI50: 2.54 µM (inactive)
SN12C
  GI50: 4.6 µM (inactive)
TK-10
  GI50: 16.4 µM (inactive)
UACC-257
  GI50: 7.6 µM (inactive)

## O=C(O)C(Cl)(c1ccccc1)c1ccccc1
786-0
  GI50: > 100 µM (inactive)
A549
  GI50: > 100 µM (inactive)
ACHN
  GI50: > 100 µM (inactive)
COLO 205
  GI50: > 100 µM (inactive)
EKVX
  GI50: > 100 µM (inactive)
HCC 2998
  GI50: > 100 µM (inactive)
Hs-578T
  GI50: > 100 µM (inactive)
M14
  GI50: > 100 µM (inactive)
MDA-MB-231
  GI50: > 100 µM (inactive)
MDA-MB-435
  GI50: > 100 µM (inactive)
MOLT-4
  GI50: > 100 µM (inactive)
NCI-H460
  GI50: > 100 µM (inactive)
OVCAR-4
  GI50: > 100 µM (inactive)
PC-3
  GI50: > 100 µM (inactive)
RXF 393
  GI50: > 100 µM (inactive)
SF-539
  GI50: > 100 µM (inactive)
SN12C
  GI50: > 100 µM (inactive)
TK-10
  GI50: > 100 µM (inactive)
UACC-257
  GI50: > 100 µM (inactive)

## COc1c(C)c2c(c(=O)c3c(C)cccc3n2C)c2c1c(=O)c1c(C)cccc1n2C
786-0
  GI50: > 10 µM (inactive)
A549
  GI50: > 10 µM (inactive)
ACHN
  GI50: > 10 µM (inactive)
COLO 205
  GI50: > 10 µM (inactive)
EKVX
  GI50: > 10 µM (inactive)
HCC 2998
  GI50: > 10 µM (inactive)
Hs-578T
  GI50: > 10 µM (inactive)
M14
  GI50: > 10 µM (inactive)
MDA-MB-231
  GI50: > 10 µM (inactive)
MDA-MB-435
  GI50: > 10 µM (inactive)
MOLT-4
  GI50: > 10 µM (inactive)
NCI-H460
  GI50: 5.62 µM (inactive)
OVCAR-4
  GI50: > 10 µM (inactive)
PC-3
  GI50: > 10 µM (inactive)
RXF 393
  GI50: > 10 µM (inactive)
SF-539
  GI50: > 10 µM (inactive)
SN12C
  GI50: > 10 µM (inactive)
TK-10
  GI50: > 10 µM (inactive)
UACC-257
  GI50: > 10 µM (inactive)

## COc1ccc(-c2nc(-c3cc4c(ccc5ccccc54)oc3=O)cs2)cc1
786-0
  GI50: 33.2 µM (inactive)
A549
  GI50: > 100 µM (inactive)
ACHN
  GI50: > 100 µM (inactive)
COLO 205
  GI50: > 100 µM (inactive)
EKVX
  GI50: > 100 µM (inactive)
HCC 2998
  GI50: > 100 µM (inactive)
Hs-578T
  GI50: > 100 µM (inactive)
M14
  GI50: > 100 µM (inactive)
MDA-MB-231
  GI50: 73.6 µM (inactive)
MDA-MB-435
  GI50: > 100 µM (inactive)
MOLT-4
  GI50: > 100 µM (inactive)
NCI-H460
  GI50: > 100 µM (inactive)
OVCAR-4
  GI50: 43.7 µM (inactive)
PC-3
  GI50: > 100 µM (inactive)
RXF 393
  GI50: > 100 µM (inactive)
SF-539
  GI50: > 100 µM (inactive)
SN12C
  GI50: > 100 µM (inactive)
TK-10
  GI50: > 100 µM (inactive)
UACC-257
  GI50: > 100 µM (inactive)

## CC1=CC[C@@]2(C)CC[C@](O)(C(C)C)C2C(OC(=O)c2ccccc2)C1 (some centres undefined)
786-0
  GI50: 18.5 µM (inactive)
A549
  GI50: 15.6 µM (inactive)
ACHN
  GI50: 17.8 µM (inactive)
COLO 205
  GI50: 22.1 µM (inactive)
EKVX
  GI50: 15.5 µM (inactive)
HCC 2998
  GI50: 11.8 µM (inactive)
Hs-578T
  GI50: 21.2 µM (inactive)
M14
  GI50: 18.7 µM (inactive)
MDA-MB-231
  GI50: 17.9 µM (inactive)
MDA-MB-435
  GI50: 36.1 µM (inactive)
MOLT-4
  GI50: 17.1 µM (inactive)
NCI-H460
  GI50: 21.6 µM (inactive)
OVCAR-4
  GI50: 25 µM (inactive)
PC-3
  GI50: 18.7 µM (inactive)
RXF 393
  GI50: 12.7 µM (inactive)
SF-539
  GI50: 19.8 µM (inactive)
SN12C
  GI50: 23.6 µM (inactive)
TK-10
  GI50: 18.3 µM (inactive)
UACC-257
  GI50: 18.9 µM (inactive)

## COC(=O)C1(C(=O)OC)C/C(C)=C(/C)SCCCS1
786-0
  GI50: > 100 µM (inactive)
A549
  GI50: > 100 µM (inactive)
ACHN
  GI50: > 100 µM (inactive)
COLO 205
  GI50: > 100 µM (inactive)
EKVX
  GI50: > 100 µM (inactive)
HCC 2998
  GI50: > 100 µM (inactive)
Hs-578T
  GI50: > 100 µM (inactive)
M14
  GI50: > 100 µM (inactive)
MDA-MB-231
  GI50: > 100 µM (inactive)
MDA-MB-435
  GI50: > 100 µM (inactive)
MOLT-4
  GI50: 44.4 µM (inactive)
NCI-H460
  GI50: > 100 µM (inactive)
OVCAR-4
  GI50: > 100 µM (inactive)
PC-3
  GI50: 64.1 µM (inactive)
RXF 393
  GI50: > 100 µM (inactive)
SF-539
  GI50: > 100 µM (inactive)
SN12C
  GI50: 86.3 µM (inactive)
TK-10
  GI50: > 100 µM (inactive)
UACC-257
  GI50: 71.9 µM (inactive)

## CC(C)(C)c1ccc(OCCOc2ccc(C(C)(C)C)cc2N)c(N)c1
786-0
  GI50: 29.9 µM (inactive)
A549
  GI50: 26.2 µM (inactive)
ACHN
  GI50: 60.1 µM (inactive)
COLO 205
  GI50: > 100 µM (inactive)
EKVX
  GI50: > 100 µM (inactive)
HCC 2998
  GI50: > 100 µM (inactive)
Hs-578T
  GI50: 24.2 µM (inactive)
M14
  GI50: > 100 µM (inactive)
MDA-MB-231
  GI50: 17.5 µM (inactive)
MDA-MB-435
  GI50: > 100 µM (inactive)
MOLT-4
  GI50: > 100 µM (inactive)
NCI-H460
  GI50: > 100 µM (inactive)
OVCAR-4
  GI50: 20 µM (inactive)
PC-3
  GI50: > 100 µM (inactive)
RXF 393
  GI50: > 100 µM (inactive)
SF-539
  GI50: > 100 µM (inactive)
SN12C
  GI50: > 100 µM (inactive)
TK-10
  GI50: 69.3 µM (inactive)
UACC-257
  GI50: > 100 µM (inactive)

## CCOC(=O)c1c(Nc2ccccc2)sc2cccnc12
786-0
  GI50: 11.6 µM (inactive)
A549
  GI50: 3.24 µM (inactive)
ACHN
  GI50: 14.2 µM (inactive)
COLO 205
  GI50: 0.853 µM (active)
EKVX
  GI50: 18.5 µM (inactive)
HCC 2998
  GI50: 3.24 µM (inactive)
Hs-578T
  GI50: 35.3 µM (inactive)
M14
  GI50: 4.49 µM (inactive)
MDA-MB-231
  GI50: 6.56 µM (inactive)
MDA-MB-435
  GI50: 22.6 µM (inactive)
MOLT-4
  GI50: 15.6 µM (inactive)
NCI-H460
  GI50: 2.25 µM (inactive)
OVCAR-4
  GI50: 23.3 µM (inactive)
PC-3
  GI50: 11.1 µM (inactive)
RXF 393
  GI50: 25.7 µM (inactive)
SF-539
  GI50: 1.43 µM (inactive)
SN12C
  GI50: 9.18 µM (inactive)
TK-10
  GI50: 11.2 µM (inactive)
UACC-257
  GI50: 5.35 µM (inactive)

## CCOC(=O)c1cnc(-n2[nH]c(C)c(CCO)c2=O)[nH]c1=O
786-0
  GI50: > 100 µM (inactive)
A549
  GI50: > 100 µM (inactive)
ACHN
  GI50: > 100 µM (inactive)
COLO 205
  GI50: > 100 µM (inactive)
EKVX
  GI50: > 100 µM (inactive)
HCC 2998
  GI50: > 100 µM (inactive)
Hs-578T
  GI50: > 100 µM (inactive)
M14
  GI50: > 100 µM (inactive)
MDA-MB-231
  GI50: > 100 µM (inactive)
MDA-MB-435
  GI50: > 100 µM (inactive)
MOLT-4
  GI50: > 100 µM (inactive)
NCI-H460
  GI50: > 100 µM (inactive)
OVCAR-4
  GI50: > 100 µM (inactive)
PC-3
  GI50: > 100 µM (inactive)
RXF 393
  GI50: > 100 µM (inactive)
SF-539
  GI50: > 100 µM (inactive)
SN12C
  GI50: > 100 µM (inactive)
TK-10
  GI50: > 100 µM (inactive)
UACC-257
  GI50: > 100 µM (inactive)
